{"source": "paper PMC7834738", "about": "(Molecular Therapy, 2020)", "key": {"[1]": {"test_system": "SARS-CoV-2 (USA_WA1/2020)", "type": "cell-based"}, "Vero E6 cells": {"test_system": "Vero E6 cells", "type": "cell-based"}, "SARS-CoV-2 [2]": {"test_system": "SARS-CoV-2", "details": "cited from earlier work"}, "[3]": {"details": "healthy adults; cited from earlier work"}, "COVID-19": {"test_system": "COVID-19", "details": "392 participants, outpatient setting; cited from earlier work"}, "SARS-CoV-2 [4]": {"test_system": "SARS-CoV-2", "details": "single agent; cited from earlier work"}}, "note": "Entries after “also recorded” stand apart in the source; their conditions may differ."}
{"smiles": "CC(=O)Oc1ccccc1C(=O)Nc1ncc([N+](=O)[O-])s1", "note": "[Nitazoxanide]", "values": [{"measurement": "nitazoxanide concentrations with complete rescue of CPE", "setting": "[1]", "value": "0.625 to 5", "unit": "µM"}, {"measurement": "cytotoxicity", "setting": "Vero E6 cells", "value": "not cytotoxic"}, {"measurement": "toxicity to Vero E6 cells", "setting": "Vero E6 cells", "value": "~20", "unit": "%"}, {"measurement": "IC50", "setting": "SARS-CoV-2 [2]", "value": "~2", "unit": "µM"}, {"measurement": "tolerability", "setting": "[3]", "value": "well tolerated"}, {"measurement": "efficacy with respect to 7-day viral load and symptom resolution", "setting": "COVID-19", "value": "modest efficacy"}]}
{"smiles": "CCOC(=O)C1=C[C@@H](OC(CC)CC)[C@H](NC(C)=O)[C@@H](N)C1", "note": "[Oseltamivir phosphate]", "values": [{"measurement": "antagonism with remdesivir", "setting": "[1]", "value": "no antagonism"}]}
{"smiles": "OC(c1cc(C(F)(F)F)nc2c(C(F)(F)F)cccc12)C1CCCCN1", "note": "(centres unmarked) [Mefloquine]", "values": [{"measurement": "antagonism against GS-441524", "setting": "[1]", "value": "not"}, {"measurement": "concentrations that significantly antagonized against remdesivir", "setting": "[1]", "value": "0.625 to 1.25", "unit": "µM"}, {"measurement": "interaction with remdesivir at high concentrations", "setting": "[1]", "value": "synergize"}, {"measurement": "interaction with remdesivir in CPE assay", "setting": "[1]", "value": "strong antagonistic effect; also recorded: antagonize"}]}
{"smiles": "N#C[C@@]1(c2ccc3c(N)ncnn23)O[C@H](CO)[C@@H](O)[C@H]1O", "note": "[GS-441524]", "values": [{"measurement": "CPE", "setting": "[1]", "value": "≈ 0"}]}
{"smiles": "CCN(CC)Cc1cc(Nc2ccnc3cc(Cl)ccc23)ccc1O", "note": "[Amodiaquine]", "values": [{"measurement": "antagonism against GS-441524", "setting": "[1]", "value": "not"}, {"measurement": "concentrations that significantly antagonized against remdesivir", "setting": "[1]", "value": "0.625 to 5", "unit": "µM"}, {"measurement": "interaction with nitazoxanide in CPE assay", "setting": "[1]", "value": "notable synergism"}, {"measurement": "interaction with remdesivir at high concentrations", "setting": "[1]", "value": "synergize"}, {"measurement": "interaction with remdesivir in CPE assay", "setting": "[1]", "value": "strong antagonistic effect; also recorded: antagonize"}, {"measurement": "fold less potent in Calu-3 (TMPRSS2+) than in Vero E6", "setting": "SARS-CoV-2 [4]", "value": "> 10", "unit": "fold"}]}
{"smiles": "CCOC(=O)c1c(CSc2ccccc2)n(C)c2cc(Br)c(O)c(CN(C)C)c12", "note": "[Arbidol]", "values": [{"measurement": "concentrations showing antagonism against remdesivir", "setting": "[1]", "value": "123 to 370", "unit": "nM"}, {"measurement": "concentrations synergizing with remdesivir", "setting": "[1]", "value": "3 to 10", "unit": "µM"}, {"measurement": "interaction with remdesivir in CPE assay", "setting": "[1]", "value": "antagonize"}]}
{"smiles": "CCC(CC)COC(=O)[C@H](C)N[P@](=O)(OC[C@H]1O[C@@](C#N)(c2ccc3c(N)ncnn23)[C@H](O)[C@@H]1O)Oc1ccccc1", "note": "[Remdesivir]", "values": [{"measurement": "CPE", "setting": "[1]", "value": "≈ 0"}, {"measurement": "interaction with nitazoxanide in CPE assay", "setting": "[1]", "value": "notable synergism"}]}
